Test results from patent US20230130103A1, “TARGETED PHARMACOLOGICAL THERAPEUTICS IN UVEAL MELANOMA” (Washington University, priority 2017, published 2023).
Starred links: 1 amine or outer side, 2 acyl side, 3 side chain; linkers in the order of their positions; H or OH if unused. Positions of bridges follow the written chain, without caps; N, C: chain ends. Non-standard residues stand in square brackets, D forms with d. Residues, ends and D or L forms follow the SMILES beside them. *: point of attachment. Leu(3R-OH,Nα-propionyl) = CCC(=O)N[C@H](C(=O)*)[C@H](O)C(C)C; X1 = CC(C)[C@@H](O[*:3])[C@H](N[*:1])C(=O)[*:2]; X2 = CC(C)[C@H](O[*:3])[C@@H](N[*:1])C(=O)[*:2]; NMeaThr = CN[C@H](C(=O)O)[C@H](C)O; dPhLac = O=C(O)[C@H](O)Cc1ccccc1; NMeA = CN[C@@H](C)C(=O)O; NMeDha = C=C(NC)C(=O)O

Tests used:
[1] = system: constitutively active Gαq bearing FR binding site mutations; assay: SRE(L) promoter-driven transcriptional reporter; format: cell-based; settings: read-out: IC50, inhibition of transcriptional reporter induction
Text: (§1) (FIG. 1A-1C) depicts the effect of FR on the activity state of Gα subunits as determined by interaction with Gβγ or RGS domains in split luciferase complementation assays. FIG. 1A Effect of FR on interaction of Gβγ2 with the indicated wild type (WT) or mutant constitutively active (Q/L) forms of Gα (q) or Gα13 (13). * p<0.01; ** p<0.05. FIG. 1B Potency of FR as a driver of interaction of Gβγ2 with wild type or mutant constitutively active Gαq. FIG. 1C Potency of FR as inhibitor of interaction of RGS2 with mutant constitutively active (Q/L) Gαq, or interaction of the RGS domain of LARG (LARG-RGS) with mutant constitutively active Gα13. FIG. 1D Potency of FR as inhibitor of signal transduction by constitutively active Gαq or Gα13 detected with an SRE(L) promoter-driven transcriptional reporter. Constitutively active Gαq (Q/L), constitutively active Gαq bearing the indicated FR binding site mutations, and constitutively Gα13 (Q/L) were studied.
(§2) Assays of transcriptional reporters driven by YAP or Gα subunits were performed as described (42, 43). YAP- or Ga-driven firefly luciferase activity was normalized to Renilla luciferase expressed from a constitutive promoter.

[2] = system: constitutively active Gαq; assay: SRE(L) promoter-driven transcriptional reporter; format: cell-based; settings: driven by constitutively active Gαq; FIG. 1D; read-out: IC50, inhibition of transcriptional reporter induction
Text: as §1, §2

[3] = system: constitutively active Gα13; assay: SRE(L) promoter-driven transcriptional reporter; format: cell-based; settings: driven by constitutively active Gα13
Text: as §1, §2

[4] = system: Gαi/q(R54K); format: cell-based; settings: Gαi/q(R54K) vs Gαi/q
[5] = biological target: T1, Gαi/q(R54K) (Homo sapiens, UniProt P63096, C351G, form not given); format: cell-based; settings: read-out: IC50, attenuation of cannabinoid type 1 receptor inhibition of forskolin-induced cAMP accumulation; via Gαi/q(R54K); Neuro2A cells; FIG. 2C
T1 construct: […]
T1 sequence (P63096 whole entry V50I/Y69F/V72L/K180P/V185I/T187Y/H188P/C351G, form open): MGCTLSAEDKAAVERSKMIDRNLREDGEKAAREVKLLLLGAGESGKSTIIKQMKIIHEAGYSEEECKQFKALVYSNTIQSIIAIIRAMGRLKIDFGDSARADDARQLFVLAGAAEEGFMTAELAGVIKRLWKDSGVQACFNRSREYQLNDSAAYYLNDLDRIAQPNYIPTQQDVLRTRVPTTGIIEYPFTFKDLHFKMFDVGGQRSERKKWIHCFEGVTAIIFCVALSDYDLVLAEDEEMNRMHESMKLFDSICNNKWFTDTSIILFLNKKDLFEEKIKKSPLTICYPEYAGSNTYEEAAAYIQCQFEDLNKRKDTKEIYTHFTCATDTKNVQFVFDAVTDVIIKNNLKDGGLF

[6] = system: Gαi/q(R54K); assay: In vitro nucleotide exchange (BODIPY-GTPγS fluorescence); format: biochemical; settings: Gαi/q(R54K) vs Gαi/q
[7] = biological target: T2, Gαi/q (Homo sapiens, UniProt P63096, K54R/C351G, form not given); format: cell-based; settings: read-out: IC50, attenuation of cannabinoid type 1 receptor inhibition of forskolin-induced cAMP accumulation; via Gαi/q; Neuro2A cells, PTX-treated; FIG. 2C
T2 construct: other: via Gαi/q; the eight substituted residues copy Gαq (GNAQ) but are point changes, not a fused part of Gαq
T2 sequence (P63096 whole entry V50I/K54R/Y69F/V72L/K180P/V185I/T187Y/H188P/C351G, form open, the tested form may be a part): as the sequence (P63096 whole entry V50I/Y69F/V72L/K180P/V185I/T187Y/H188P/C351G, form open) above, with K54R counted along it

[8] = system: Mel202 cells; assay: YAP-driven transcriptional reporter; format: cell-based; settings: Homo sapiens, FIG. 6B, read-out: EC50, increase in expression of YAP-driven transcriptional reporter
Protocol: (§3) Expression data from two experimental replicates are mean-centered; the color gradient corresponds to difference in log 2 ratio of expression from the mean, such that 0.5 versus −0.5 is a total difference of 2-fold in unlogged expression.
as §2

[9] = system: 92.1 cells; assay: YAP-driven transcriptional reporter; format: cell-based; settings: Homo sapiens, FIG. 6B, read-out: EC50, increase in expression of YAP-driven transcriptional reporter
Protocol: as §3, §2

[10] = Retina structure (preliminary data)
Text: In this example we will determine whether FR has potential to provide vision sparing therapy for primary (ocular) UM tumors. […] Based on our preliminary studies of UM cells in culture, intravitreal injection might be therapeutically beneficial by inhibiting tumor growth, promoting apoptosis, and/or pushing tumor re-differentiation toward melanocytic phenotypes less likely to metastasize. […] Our second priority is to determine whether FR administered systemically could provide therapeutic benefit for metastatic UM tumors.

[11] = system: OCM-1A cells; assay: Flow cytometry of DNA content (proliferation and apoptosis); settings: 3 d, FIG. 4C-D
Protocol: Cells were cultured at 37.0 in 5% CO2. […] Cell lines were grown in RPMI 1640 medium (Life Technologies, Carlsbad, Calif.) supplemented with 10% FBS and antibiotics. […] Flow cytometry for analysis of cell proliferation and apoptosis was performed at the Siteman Cancer Center Flow Cytometry Core on a FACScan analyzer (BD Biosciences, San Diego Calif., USA) using a standard propidium iodide staining protocol as described previously (44).

[12] = system: 92.1 cells; assay: as above; settings: 3 d, FIG. 4C-D
Protocol: Cells were cultured at 37.0 in 5% CO2. […] Cell lines were grown in RPMI 1640 medium (Life Technologies, Carlsbad, Calif.) supplemented with 10% FBS and antibiotics. Cell viability was measured using a water-soluble tetrazolium salt, WTS-8 (Bimake, Houston, Tex.), following the manufacturer's protocol. Flow cytometry for analysis of cell proliferation and apoptosis was performed at the Siteman Cancer Center Flow Cytometry Core on a FACScan analyzer (BD Biosciences, San Diego Calif., USA) using a standard propidium iodide staining protocol as described previously (44).

[13] = system: Mel202 cells; assay: qPCR validation of FR target genes; format: cell-based, Human; settings: FR-treated Mel202 cells; FIG. 10
Protocol: More important, 42% of genes in this cluster are known targets of the polycomb repressive complex 2 (PRC2) during differentiation from embryonic stem cells (FIG. 7D and Table 5), as indicated by gene set enrichment analysis.
92.1 UM cells were treated with 100 nM FR or vehicle (DMSO) in RPMI growth medium and collected after 1 and 3 d of treatment. RNA was isolated using the RNeasy Mini Kit (Qiagen) following the manufacturer's protocol and including the optional DNase I treatment step. RNA quality was assessed on a Bioanalyzer 2100 (Agilent Technologies, Santa Clara, Calif., USA). mRNA was extracted from total RNA using a Dynal mRNA Direct kit, fragmented and reverse transcribed to double stranded cDNA with random primers before addition of adapters for library preparation. Library preparation and HiSeq2500 sequencing were performed by the Washington University Genome Technology Access Center (gtac.wustl.edu). FastQ files were aligned to the transcriptome and the whole-genome with STAR. Biologic replicates were simultaneously analyzed by edgeR and Sailfish analyses of gene-level/exon-level features. […] Significant gene sets from GSEA analyses were combined such that genes associated with multiple related signatures were only counted once and each gene was assigned only to a single combined groupbased on the signature with the highest enrichment score for that gene. […]

[14] = system: 92.1 UM cells; assay: RNA-Seq global gene expression, FR vs vehicle; format: cell-based, Human; settings: 92.1 cells, 100 nM FR, p<0.001

For `C=C1C(=O)N[C@@H](C)C(=O)N(C)[C@@H](C)C(=O)N[C@H]([C@@H](OC(=O)[C@@H](NC(=O)CC)[C@H](O)C(C)C)C(C)C)C(=O)N(C)[C@@H]([C@H](C)OC)C(=O)O[C@H](C(C)C)[C@H](NC(C)=O)C(=O)O[C@H](Cc2ccccc2)C(=O)N1C` [FR, [(1S)-1-[(3S,6R,9S,12S,18R,21S,22R)-21-acetamido-18-benzyl-3-[(1S)-1-methoxyethyl]-4,9,10,12,16-pentamethyl-15-methylidene-2,5,8,11,14,17,20-heptaoxo-22-propan-2-yl-1,19-dioxa-4,7,10,13,16-pentazacyclodocos-6-yl]-2-methylpropyl] (2S,3R)-3-hydroxy-4-methyl-2-(propanoylamino)pentanoate] (Ac-[X1][dPhLac][NMeDha]A[NMeA][X2](Leu(3R-OH,Nα-propionyl))[NMeaThr](Me); ester 1-C), the IC50 [1] was 30 to 70 nM, the IC50 [2] was 1 nM and the “effect on expression of the transcriptional reporter” value [3] was “no effect”. The “fold less potent than toward Gαi/q, cAMP signaling” value [4] was roughly 30 fold, the IC50 [5] was roughly 800 nM and the “fold less potent than toward Gαi/q, nucleotide exchange” value [6] was roughly 10 fold. It also gave an IC50 [7] of 25 nM, an EC50 [8] of 0.8 nM and an EC50 [9] of 3 nM. For the same molecule, the retina structure [10] was “preserves retina structure”, the “cell cycle inhibition and apoptosis” value [11] was “no effect” and the “apoptosis (sub-G1/G0 cells)” value [12] was “increased levels of sub-G1/G0 cells”. For the same molecule, the “cell cycle inhibition (decreased levels of S- and G2/M-phase cells)” value [12] was “induced cell cycle inhibition”, the “RNA-Seq downregulation results checked by quantitative RT-PCR” value [13] was “confirmed” and the BBC3/PUMA expression decrease [14] was 3.5 fold. The PMAIP1/NOXA expression decrease [14] was 2.5 fold and the “p21CIP1 (CDKN1A) expression, down” value [14] was 3.0 fold.
